{"source": "patent US20240398762A1", "about": "“PHARMACEUTICAL COMPOSITION WITH ANALGESIC AND/OR ANTIPRURITIC FUNCTIONS AND APPLICATION THEREOF” (PENGEKIPHEN BIOTECH LIMITED COMPANY, priority 2022, published 2024)", "key": {"[1]": {"system": "miR-96−/− mice", "assay": "Mechanical pain threshold (Von Frey paw withdrawal threshold) of hind paws after intragastric administration", "assay_type": "in vivo, mouse", "conditions": "1 h after administration; for dose group exhibiting the best analgesic effect: three doses tested", "method": "In order to screen an analgesic drug with excellent oral efficacy, analgesic effects of intragastric administration of Nav1.7 inhibitor and Nav1.8 inhibitor in eight 3-6-month-old miR-96^−/− mice ([…] BIOTECH LIMITED COMPANY) were tested.\nFirstly, mechanical pain thresholds of hind paws of the miR-96^−/− mice were measured. The eight miR-96^−/− mice were placed on an iron frame and covered with a plexiglass cover. After 30 min, paw withdrawal thresholds (PWT) of the mice were measured using Von Frey (DanMic Global, CA, USA). […] 1 h after the intragastric administration of 30 μg/kg, 60 μg/kg or 90 μg/kg of PF-06305591, the mechanical pain thresholds of the hind paws of the miR-96″ mice were measured."}, "[2]": {"system": "subjects with painful diabetic peripheral neuropathy", "conditions": "McDonnell et al., Pain 2018; cited from earlier work"}}, "note": "Where a name gives a salt, the structure may show the parent alone."}
{"smiles": "NC(=O)[C@@H]1CC[C@H](c2ccc(OCc3ccccc3F)cc2)N1", "note": "[CNV1014802]", "values": [{"measurement": "analgesic effect versus solvent control group", "setting": "[1]; 20 mg/kg intragastric", "result": "significant analgesic effects"}, {"measurement": "analgesic effect versus solvent control group", "setting": "[1]; 30 mg/kg intragastric", "result": "significant analgesic effects"}, {"measurement": "analgesic effect versus solvent control group", "setting": "[1]; 40 mg/kg intragastric", "result": "significant analgesic effects"}, {"measurement": "dose group exhibiting the best analgesic effect", "setting": "[1]; intragastric", "result": 30, "unit": "mg/kg"}]}
{"smiles": "N#Cc1cc(S(=O)(=O)Nc2ncns2)ccc1Oc1ccc(-c2cccc(C(F)(F)F)c2)cc1-c1ccnc(CNCCC2CCNCC2)c1", "note": "[PF-06456384, 3-cyano-4-[[3-[2-[[[2-(4-piperidinyl)ethyl]amino]methyl]-4-pyridinyl]-3′-(trifluoromethyl)[1,1′-biphenyl]-4-yl]oxy]-N-1,2,4-thiadiazol-5-yl-benzenesulfonamide trihydrochloride]", "values": [{"measurement": "analgesic effect versus solvent control group", "setting": "[1]; 1 mg/kg intragastric", "result": "significant analgesic effects"}, {"measurement": "analgesic effect versus solvent control group", "setting": "[1]; 2 mg/kg intragastric", "result": "significant analgesic effects"}, {"measurement": "analgesic effect versus solvent control group", "setting": "[1]; 3 mg/kg intragastric", "result": "significant analgesic effects"}, {"measurement": "dose group exhibiting the best analgesic effect", "setting": "[1]; intragastric", "result": 2, "unit": "mg/kg"}]}
{"smiles": "Nc1n[nH]cc1-c1cc(Cl)ccc1Oc1cc(F)c(S(=O)(=O)Nc2cscn2)cc1Cl", "note": "[PF-05089771, 4-[2-(3-amino-1H-pyrazol-4-yl)-4-chlorophenoxy]-5-chloro-2-fluoro-N-4-thiazolylbenzenesulfonamide tosylate]", "values": [{"measurement": "analgesic effect versus solvent control group", "setting": "[1]; 4 mg/kg intragastric", "result": "significantly better than that of the solvent control group"}, {"measurement": "analgesic effect versus solvent control group", "setting": "[1]; 6 mg/kg intragastric", "result": "significantly better than that of the solvent control group"}, {"measurement": "efficacy of the 6 mg/kg-dose group compared with the 4 mg/kg-dose group", "setting": "[1]; intragastric", "result": "not better than that of the 4 mg/kg-dose group"}, {"measurement": "analgesic effect in clinical studies", "setting": "[2]", "result": "does not exhibit desired analgesic effect"}]}
{"smiles": "NCC1(CC(=O)O)CCCCC1", "note": "[Gabapentin]", "values": [{"measurement": "effect on mechanical pain thresholds", "setting": "[1]; 50 mg/kg intragastric", "result": "significantly improve the mechanical pain thresholds"}]}
{"smiles": "C[C@@H](C(N)=O)[C@H](N)c1nc2cc(C(C)(C)C)ccc2[nH]1", "note": "[PF-06305591, (αR, βS)-β-Amino-6-(1,1-dimethylethyl)-α-methyl-1H-benzimidazole-2-propanamide dihydrate]", "values": [{"measurement": "analgesic effect versus solvent control group", "setting": "[1]; 60 μg/kg intragastric", "result": "significantly better than that of the solvent control group"}, {"measurement": "analgesic effect versus solvent control group", "setting": "[1]; 90 μg/kg intragastric", "result": "significantly better than that of the solvent control group"}, {"measurement": "dose group exhibiting the best analgesic effect", "setting": "[1]; intragastric", "result": 0.06, "unit": "mg/kg"}]}
{"smiles": "CC(C)(N)c1ncc(-c2ccc(OC(F)(F)F)cc2)[nH]1", "note": "[PF-04885614, 1-methyl-1-[4-(4-trifluoromethoxy-phenyl)-1H-imidazol-2-yl]-ethylamine]", "values": [{"measurement": "analgesic effect versus solvent control group", "setting": "[1]; 180 μg/kg intragastric", "result": "significantly better than that of the solvent control group"}, {"measurement": "analgesic effect versus solvent control group", "setting": "[1]; 270 μg/kg intragastric", "result": "significantly better than that of the solvent control group"}, {"measurement": "dose group exhibiting the best analgesic effect", "setting": "[1]; intragastric", "result": 0.18, "unit": "mg/kg"}]}
